Measured values: patent US20120177797A1, “TASTE ENHANCING AGENT” (J-OIL MILLS, INC., priority 2009, published 2012)

What was measured:
Format in all cases: in vivo
[1] = Sensory evaluation, intensity of saltiness in aqueous NaCl solution; settings: 10 ppm added to 0.8% NaCl; additive-free = 3.0; 1.0 much weaker to 5.0 much stronger
Procedure: (§1) All sensory evaluation of taste was performed by individuals wearing a nose clip. The evaluation was performed by groups of three individuals, and the scores were averaged.
(§2) To a 0.2% aqueous sodium glutamate (MSG) solution (=umami), a 0.8% aqueous salt (NaCl) solution (=saltiness) and a 2% aqueous sucrose solution (=sweetness) were added 10 ppm linear aliphatic aldehydes having 3-12 carbon atoms shown in Table 1, respectively. Sensory evaluation was performed in which intensity of taste sensed when each of the aqueous solutions is introduced into the mouth is defined as “Intensity of umami” for the aqueous MSG solution, “Intensity of saltiness” for the aqueous NaCl solution and “Intensity of sweetness” for the aqueous sucrose solution. The score of aldehyde-free taste intensity was set to 3.0, and taste intensity upon addition of aldehyde was evaluated as follows. The results are shown in Table 1. • 1.0: Much weaker • 2.0: Weaker • 3.0: Similar • 4.0: Stronger • 5.0: Much Stronger
(§3) To a 0.2% aqueous sodium glutamate (MSG) solution (=umami), a 0.8% aqueous salt (NaCl) solution (=saltiness), a 2% aqueous sucrose solution (=sweetness) were added 10 ppm linear aliphatic alcohols having 2-11 carbon atoms, respectively. Sensory evaluation was performed in which intensity of taste sensed when each of the aqueous solutions is introduced into the mouth is defined as “Intensity of umami” for the aqueous MSG solution, “Intensity of saltiness” for the aqueous NaCl solution and “Intensity of sweetness” for the aqueous sucrose solution. The score of alcohol-free taste intensity was set to 3.0, and taste intensity upon addition was evaluated as follows. The results are shown in Table 3. • 1.0: Much weaker • 2.0: Weaker • 3.0: Similar • 4.0: Stronger • 5.0: Much stronger
(§4) To a 0.2% aqueous sodium glutamate (MSG) solution (=umami), a 0.8% aqueous salt (NaCl) solution (=saltiness), a 2% aqueous sucrose solution (=sweetness) were added 1 ppm n-hexanal and 1ppm 1-octene-3-ol each, respectively. Sensory evaluation was performed in which the intensity of taste sensed when each of the aqueous solutions is introduced into the mouth is defined as “Intensity of umami” for the aqueous MSG solution, “Intensity of saltiness” for the aqueous NaCl solution and “Intensity of sweetness” for the aqueous sucrose solution. The score of additive-free taste intensity was set to 3.0, and taste intensity upon addition was evaluated as follows. The results are shown in Table 9. • 1.0: Much weaker • 2.0: Weaker • 3.0: Similar • 4.0: Stronger • 5.0: Much stronger

[2] = Sensory evaluation, intensity of sweetness in aqueous sucrose solution; settings: 10 ppm added to 2% sucrose; additive-free = 3.0; 1.0 much weaker to 5.0 much stronger
Procedure: as §1, §2, §3, §4

[3] = Sensory evaluation, intensity of umami in aqueous MSG solution; settings: 10 ppm added to 0.2% MSG; additive-free = 3.0; 1.0 much weaker to 5.0 much stronger; mean of three individuals, nose clip
Procedure: as §1, §2, §3, §4

[4] = Sensory evaluation, intensity of sweetness in whipped cream; settings: 100 ppm in whipped cream; aldehyde-free = 3.0; scale 1.0-5.0
Procedure: as §1
Sensory evaluation was performed for “Intensity of sweetness”. The score of aldehyde-free taste intensity was set to 3.0, and taste intensity upon addition was evaluated as follows. The results are shown in Table 8. • 1.0: Much weaker • 2.0: Weaker • 3.0: Similar • 4.0: Stronger • 5.0: Much stronger

[5] = Sensory evaluation, intensity of saltiness in diluted soy sauce; settings: 10 ppm in soy sauce diluted to 2% in water; aldehyde-free = 3.0; scale 1.0-5.0
Procedure: as §1
(§5) Sensory evaluation was performed for “Intensity of Umani ” and “ Intensity of Saltiness “. The score of aldehyde-free taste intensity was set to 3.0, and taste intensity upon addition was evaluated as follows. The results are shown in Table 7. • 1.0: Much weaker • 2.0: Weaker • 3.0: Similar • 4.0: Stronger • 5.0: Much stronger

[6] = Sensory evaluation, intensity of umami in diluted soy sauce; settings: 10 ppm in soy sauce diluted to 2% in water; aldehyde-free = 3.0; scale 1.0-5.0
Procedure: as §1, §5

[7] = Sensory evaluation whether sucrose usage can be reduced; settings: nothing added, for comparison, 1.5% sucrose solution = 3.0
Procedure: as §1
Evaluation was conducted to find whether sucrose usage can be reduced by the taste enhancing effects. To a 1.5% aqueous sucrose solution was added 10 ppm n-hexanal or 10 ppm 1-octen-3-ol. Taste intensity was determined in the sensory evaluation where the taste intensity of the 1.5% sucrose solution was set to 3.0. For comparison, sensory evaluation was also performed for a 2.0% and 1.8% concentration of aqueous sucrose solution. The sensory evaluation was evaluated as follows. The results are shown in Table 6. • 1.0: Much weaker • 2.0: Weaker • 3.0: Similar • 4.0: Stronger • 5.0: Much stronger

[8] = Sensory evaluation, intensity of umami in aqueous MSG solution; settings: 10 ppm added to 0.2% MSG; additive-free = 3.0; 1.0 much weaker to 5.0 much stronger; mean of three individuals, nose clip; remark: listed apart in the source
[9] = Sensory evaluation, intensity of saltiness in aqueous NaCl solution; settings: 10 ppm added to 0.8% NaCl; additive-free = 3.0; 1.0 much weaker to 5.0 much stronger; remark: listed apart in the source
[10] = Sensory evaluation, intensity of sweetness in aqueous sucrose solution; settings: 10 ppm added to 2% sucrose; additive-free = 3.0; 1.0 much weaker to 5.0 much stronger; remark: listed apart in the source
[11] = Sensory evaluation whether salt usage can be reduced; settings: nothing added, for comparison, 0.5% NaCl solution = 3.0
Procedure: as §1
Evaluation was conducted to find whether salt usage can be reduced by the taste enhancing effects. To a 0.5% aqueous NaCl solution was added 10 ppm n-hexanal or 10 ppm 1-octen-3-ol. Taste intensity was determined in the sensory evaluation where the taste intensity of the 0.5% NaCl solution was set to 3.0. For comparison, sensory evaluation was also performed for a 0.8% and 0.6% concentration of aqueous NaCl solution. The sensory evaluation was evaluated as follows. The results are shown in Table 5. • 1.0: Much weaker • 2.0: Weaker • 3.0: Similar • 4.0: Stronger • 5.0: Much stronger

Compound	Intensity of saltiness, Aqueous NaCl solution [1]	Intensity of sweetness, Aqueous sucrose solution [2]	Intensity of umami, Aqueous MSG solution [3]	also measured
CCO [ethanol, reference compound]	3.0	3.0	3.0	–
CCCCC=O [n-pentanal]	4.5	4.0	4.5	Intensity of sweetness [4]: 4.2; Intensity of saltiness [5]: 4.2; Intensity of umami [6]: 4.2
CCCCCCCC=O [n-octanal]	3.8	3.5	3.8	Intensity of sweetness [4]: 3.5; Intensity of saltiness [5]: 3.5; Intensity of umami [6]: 3.5
CCCCCCCCCCC=O [n-undecanal, reference compound]	3.0	3.0	3.0	–
CCCCCCCO [Example 1-heptanol, 1-heptanol]	3.2	3.2	3.2	–
C=CC(C)O (stereo not shown) [Example 1-buten-3-ol, 1-buten-3-ol]	3.2	3.5	3.2	–
CCCCCCCCCC=O [n-decanal]	3.5	3.5	3.5	Intensity of sweetness [4]: 3.5; Intensity of saltiness [5]: 3.5; Intensity of umami [6]: 3.5
C=CC(O)CCCCCCC (stereo not shown) [1-decene-3-ol]	3.2	3.5	3.2	–
CCCC=CC=O [Example 2-hexenal, 2-hexenal]	3.8	3.8	3.8	–
CCCCCCCCCCCO [Example 1-undecanol, 1-undecanol, reference compound]	3.0	3.0	3.0	–
C=CCCCC=CCO [2,7-octadienol]	3.2	3.5	3.2	–
CCCCCO [Example 1-pentanol, 1-pentanol]	3.2	3.2	3.2	–
CCC=O [n-propanal]	3.5	3.5	3.5	Intensity of sweetness [4]: 3.5; Intensity of saltiness [5]: 3.5; Intensity of umami [6]: 3.5
OC[C@H]1O[C@@](CO)(O[C@H]2O[C@H](CO)[C@@H](O)[C@H](O)[C@H]2O)[C@@H](O)[C@@H]1O [sucrose, reference compound]	–	–	–	Scores in sensory evaluation (taste intensity, sweetness) ([7]; 1.8% aqueous sucrose solution): 3.5; Scores in sensory evaluation (taste intensity, sweetness) ([7]; 2.0% aqueous sucrose solution): 4.0
CCCCO [Example 1-butanol, 1-butanol]	3.2	3.2	3.2	–
CCCCCCCCO [Example 1-octanol, 1-octanol]	3.2	3.2	3.2	–
CCCCCC=CC=CC=O [2,4-decadienal]	3.5	3.5	3.5	–
CCCCCCCCCCO [Example 1-decanol, 1-decanol]	3.2	3.2	3.2	–
C=CC(O)CCC (stereo not shown) [1-hexene-3-ol]	3.2	3.5	3.2	–
CCCCCCCCCCCC=O [n-dodecanal, reference compound]	3.0	3.0	3.0	–
CCCCCCO [Example 1-hexanol, 1-hexanol]	3.2	3.2	3.2	–
CCCO [propanol, reference compound]	–	–	–	Intensity of umami, Aqueous MSG solution [8]: 3.0; Intensity of saltiness, Aqueous NaCl solution [9]: 3.0; Intensity of sweetness, Aqueous sucrose solution [10]: 3.0
CCCCCCC=O [n-heptanal]	4.5	4.0	4.5	Intensity of sweetness [4]: 4.0; Intensity of saltiness [5]: 4.0; Intensity of umami [6]: 4.0
[Cl-].[Na+] [NaCl, sodium chloride, reference compound]	–	–	–	Scores in sensory evaluation (taste intensity, saltiness) ([11]; 0.6% aqueous NaCl solution): 3.5; Scores in sensory evaluation (taste intensity, saltiness) ([11]; 0.8% aqueous NaCl solution): 4.0
CCCC=O [n-butanal]	3.5	3.5	3.5	Intensity of sweetness [4]: 3.5; Intensity of saltiness [5]: 3.5; Intensity of umami [6]: 3.5
CCCCCCCCCO [Example 1-nonanol, 1-nonanol]	3.2	3.2	3.2	–
